From patent US20210401826A1, “ABUSE DETERRENT PHARMACEUTICAL FORMULATIONS” (AVEKSHAN, LLC., priority 2018, published 2021)
Several values for one entry are separate records, joined by “and”; a condition that tells them apart may be missing. Equal values may be shown once. Where a name gives a salt, the structure may show the parent alone. Read-outs that look alike come from different tables or passages of the source.

Tests used:
[1] = Solubility study of naltrexone and methylphenidate in common solvents and household items (visual examination); type: physicochemical
Description: The solubility of naltrexone and methylphenidate was evaluated in various commonly available solvents and household items, including water, cola soft drinks, ethanol, vinegar, nail polish remover, toluene, turpentine, and baking soda solution (see Table 1). The solubility results were determined by visual examination of each solution after warming and several hours of mixing. The solubility results are presented below in Table 1.

[2] = Separation of naltrexone and methylphenidate from a 1:1 mixture using acetone; type: physicochemical; conditions: for mg NTX / MPH Recovered / % NTX / MPH Recovered / NTX / MPH: Prep. A and B
Description: In this example, equal amounts of methylphenidate and naltrexone (20 mg each) were combined and then separated. To separate the methylphenidate from the naltrexone, only materials representing commonly available household items were used, e.g., acetone (nail polish remover), water, small glass containers, a hot plate and a coffee filter. Three sources of acetone were used, all of which are available to the public, including lab grade acetone, nail polish remover, and acetone heavy-duty cleaner.
Conditions for the separation, such as acetone volume and extraction time, were tested and adjusted.

[3] = 0.2% baking soda solution, aqueous buffer, thermodynamic from solid, read-out: Solubility
[4] = 25:75 acetone:water, aqueous with cosolvent or surfactant or cyclodextrin, thermodynamic from solid, 25:75 Acetone:H2O, read-out: Solubility
[5] = 40% ethanol, aqueous with cosolvent or surfactant or cyclodextrin, thermodynamic from solid, read-out: Solubility
[6] = 50:50 acetone:water, aqueous with cosolvent or surfactant or cyclodextrin, thermodynamic from solid, 50:50 Acetone:H2O, read-out: Solubility
[7] = Coca-Cola, aqueous buffer, thermodynamic from solid, read-out: Solubility
[8] = DMF, organic solvent or mixture, thermodynamic from solid, read-out: Solubility
[9] = DMSO, organic solvent or mixture, thermodynamic from solid, read-out: Solubility
[10] = acetone, organic solvent or mixture, thermodynamic from solid, read-out: Solubility
[11] = acetonitrile, organic solvent or mixture, thermodynamic from solid, read-out: Solubility
[12] = aqueous buffer, thermodynamic from solid, 0.1M Sodium Hydroxide, read-out: Solubility
[13] = canola oil, oil or lipid, thermodynamic from solid, read-out: Solubility
[14] = ethanol, organic solvent or mixture, thermodynamic from solid, read-out: Solubility
[15] = ethyl acetate, organic solvent or mixture, thermodynamic from solid, read-out: Solubility
[16] = hexanes, organic solvent or mixture, thermodynamic from solid, read-out: Solubility
[17] = isopropyl alcohol, organic solvent or mixture, thermodynamic from solid, read-out: Solubility
[18] = methanol, organic solvent or mixture, thermodynamic from solid, read-out: Solubility
[19] = methyl ethyl ketone, organic solvent or mixture, thermodynamic from solid, read-out: Solubility
[20] = mineral spirits, organic solvent or mixture, thermodynamic from solid, read-out: Solubility
[21] = naphtha, organic solvent or mixture, thermodynamic from solid, read-out: Solubility
[22] = simulated gastric fluid, thermodynamic from solid, 0.1M Hydrochloric Acid, read-out: Solubility
[23] = toluene, organic solvent or mixture, thermodynamic from solid, read-out: Solubility
[24] = turpentine, organic solvent or mixture, thermodynamic from solid, read-out: Solubility
[25] = vinegar, aqueous buffer, thermodynamic from solid, read-out: Solubility
[26] = water, thermodynamic from solid, read-out: Solubility
[27] = xylene, organic solvent or mixture, thermodynamic from solid, read-out: Solubility
[28] = Acetone Cleaner 20 mL, listed as MPH, HCl
[29] = Lab Grade Acetone 20 mL, listed as MPH, HCl
[30] = Lab Grade Acetone 50 mL, listed as MPH, HCl
[31] = Nail Polish Remover 20 mL, listed as MPH, HCl
[32] = Nail Polish Remover 50 mL, listed as MPH, HCl
[33] = Acetone Cleaner 20 mL, listed as NTX, HCl
[34] = Acetone Cleaner 50 mL, listed as NTX, HCl
[35] = Lab Grade Acetone 20 mL, listed as NTX, HCl
[36] = Nail Polish Remover 20 mL, listed as NTX, HCl
[37] = Nail Polish Remover 50 mL, listed as NTX, HCl

COC(=O)C(c1ccccc1)C1CCCCN1 (stereo not drawn) [Methylphenidate HCl]
solubility [1, 3]: > 1000 µg/mL
solubility [1, 4]: > 1000 µg/mL
solubility [1, 5]: > 1000 µg/mL
solubility [1, 6]: > 1000 µg/mL
solubility ([1]; Acetone, HCl): >1000 µg/mL
solubility [1, 7]: > 1000 µg/mL
solubility [1, 8]: > 1000 µg/mL
solubility [1, 9]: > 1000 µg/mL
solubility [1, 10]: > 1000 µg/mL
solubility [1, 11]: > 1000 µg/mL
solubility [1, 12]: > 1000 µg/mL
solubility [1, 13]: < 100 µg/mL
solubility [1, 14]: > 1000 µg/mL
solubility [1, 15]: 100 to 500 µg/mL
solubility [1, 16]: 100 to 500 µg/mL
solubility [1, 17]: > 1000 µg/mL
solubility [1, 18]: > 1000 µg/mL
solubility [1, 19]: 500 to 1000 µg/mL
solubility [1, 20]: < 100 µg/mL
solubility [1, 21]: < 100 µg/mL
solubility [1, 22]: > 1000 µg/mL
solubility [1, 23]: < 100 µg/mL
solubility [1, 24]: < 100 µg/mL
solubility [1, 25]: > 1000 µg/mL
solubility [1, 26]: > 1000 µg/mL
solubility [1, 27]: < 100 µg/mL
mg NTX / MPH Recovered ([2]; Acetone Cleaner 20 mL): 15.9 mg
% NTX / MPH Recovered [2, 28]: 79.5% and 79.7%
NTX / MPH [2, 28]: 0.79 mg/mL and 0.80 mg/mL
NTX / MPH ([2]; Acetone Cleaner 50 mL): 0.92 mg/mL
mg NTX / MPH Recovered ([2]; Acetone Cleaner 50 mL): 18.4 mg
% NTX / MPH Recovered ([2]; Acetone Cleaner 50 mL, listed as MPH, HCl): 92.0% and 91.8%
% NTX / MPH Recovered [2, 29]: 76.4% and 73.7%
NTX / MPH [2, 29]: 0.76 mg/mL and 0.74 mg/mL
mg NTX / MPH Recovered [2, 29]: 15.3 mg and 14.7 mg
% NTX / MPH Recovered [2, 30]: 91.5% and 92.4%
NTX / MPH [2, 30]: 0.91 mg/mL and 0.92 mg/mL
mg NTX / MPH Recovered [2, 30]: 18.3 mg and 18.5 mg
mg NTX / MPH Recovered ([2]; Nail Polish Remover 20 mL): 14.6 mg
% NTX / MPH Recovered [2, 31]: 73.0% and 79.4%
NTX / MPH [2, 31]: 0.73 mg/mL and 0.79 mg/mL
mg NTX / MPH Recovered [2, 31]: 15.9 mg
NTX / MPH ([2]; Nail Polish Remover 50 mL, 20 mg each drug combined, listed as MPH, HCl): 0.91 mg/mL and 0.90 mg/mL
% NTX / MPH Recovered [2, 32]: 91.4% and 90.1%
mg NTX / MPH Recovered [2, 32]: 18.3 mg and 18.0 mg
% of methylphenidate extracted ([2]; depending on the volume of acetone used): 73-92%

O=C1CC[C@@]2(O)[C@H]3Cc4ccc(O)c5c4[C@@]2(CCN3CC2CC2)[C@H]1O5 [Naltrexone HCl]
solubility [1, 3]: > 1000 µg/mL
solubility [1, 4]: > 1000 µg/mL
solubility [1, 5]: > 1000 µg/mL
solubility [1, 6]: > 1000 µg/mL
solubility ([1]; Acetone, HCl): <100 µg/mL
solubility [1, 7]: > 1000 µg/mL
solubility [1, 8]: > 1000 µg/mL
solubility [1, 9]: > 1000 µg/mL
solubility [1, 10]: < 100 µg/mL
solubility [1, 11]: 100 to 500 µg/mL
solubility [1, 12]: > 1000 µg/mL
solubility [1, 13]: < 100 µg/mL
solubility [1, 14]: > 1000 µg/mL
solubility [1, 15]: < 100 µg/mL
solubility [1, 16]: < 100 µg/mL
solubility [1, 17]: < 100 µg/mL
solubility [1, 18]: > 1000 µg/mL
solubility [1, 19]: < 100 µg/mL
solubility [1, 20]: < 100 µg/mL
solubility [1, 21]: < 100 µg/mL
solubility [1, 22]: > 1000 µg/mL
solubility [1, 23]: < 100 µg/mL
solubility [1, 24]: < 100 µg/mL
solubility [1, 25]: > 1000 µg/mL
solubility [1, 26]: > 1000 µg/mL
solubility [1, 27]: < 100 µg/mL
% NTX / MPH Recovered [2, 33]: 5.1% and 8.5%
NTX / MPH [2, 33]: 0.05 mg/mL and 0.09 mg/mL
mg NTX / MPH Recovered [2, 33]: 1.02 mg and 1.7 mg
NTX / MPH ([2]; Acetone Cleaner 50 mL): 0.13 mg/mL
% NTX / MPH Recovered [2, 34]: 13.4% and 12.5%
mg NTX / MPH Recovered [2, 34]: 2.68 mg and 2.5 mg
% NTX / MPH Recovered [2, 35]: 5.2% and 6.5%
NTX / MPH [2, 35]: 0.05 mg/mL and 0.06 mg/mL
mg NTX / MPH Recovered [2, 35]: 1.04 mg and 1.3 mg
% NTX / MPH Recovered [2, 36]: 5.6% and 8.6%
NTX / MPH [2, 36]: 0.06 mg/mL and 0.09 mg/mL
mg NTX / MPH Recovered [2, 36]: 1.12 mg and 1.72 mg
NTX / MPH ([2]; Nail Polish Remover 50 mL, 20 mg each drug combined, listed as NTX, HCl): 0.14 mg/mL and 0.15 mg/mL
% NTX / MPH Recovered [2, 37]: 13.8% and 15.4%
mg NTX / MPH Recovered [2, 37]: 2.76 mg and 3.08 mg
